Measured values: PubChem BioAssay AID250 (DTP/NCI, 2004)
Several values for one entry are separate records, joined by “and”; a condition that tells them apart may be missing. Equal values may be shown once. Inconclusive results and toxic doses are left out.

System: BDF1 mice, L1210 leukemia sc, survival T/C
Experiment: NCI In Vivo Anticancer Drug Screen. Data for tumor model L1210 Leukemia (subcutaneous) in B6D2F1 (BDF1) mice
Details: endpoint: median survival time, vehicle: saline, higher = longer survival
Outline: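 Tumors were transplanted into mice, the animals were treated with compound, survival or tumor size was then measured, and treated values were divided by vehicle-control values.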

Nc1ncn(C2OC(CO)C(O)C2O)c(=O)n1 (centres undefined)
T/C (dose: 0.5 mg/kg/injection, schedule: Q01DX009 (sc)): 105 % of control | T/C (dose: 0.5 mg/kg/injection, schedule: Q03HX024 (sc)): 104 % of control | T/C (dose: 0.75 mg/kg/injection, schedule: Q01DX009 (ip)): 155 % of control | T/C (dose: 0.75 mg/kg/injection, schedule: Q01DX009 (sc)): 155 % of control | T/C (dose: 1.0 mg/kg/injection, schedule: Q01DX009 (sc)): 110 % of control and 111 % of control (2×) | T/C (dose: 1.0 mg/kg/injection, schedule: Q03HX024 (sc)): 118 % of control | T/C (dose: 1.0 mg/kg/injection, schedule: Q05DX009 (sc)): 116 % of control and 119 % of control | T/C (dose: 1.5 mg/kg/injection, schedule: Q01DX009 (ip)): 205 % of control | T/C (dose: 1.5 mg/kg/injection, schedule: Q01DX009 (sc)): 200 % of control | T/C (dose: 2.0 mg/kg/injection, schedule: Q01DX009 (sc)): 120 % of control and 121 % of control and 122 % of control | T/C (dose: 2.0 mg/kg/injection, schedule: Q04DX003 (sc)): 100 % of control | T/C (dose: 2.0 mg/kg/injection, schedule: Q05DX009 (sc)): 122 % of control and 123 % of control | T/C (dose: 3.0 mg/kg/injection, schedule: Q01DX009 (sc)): 172 % of control | T/C (dose: 3.0 mg/kg/injection, schedule: Q04DX003 (sc)): 122 % of control | T/C (dose: 4.0 mg/kg/injection, schedule: Q01DX001 (sc)): 100 % of control | T/C (dose: 4.0 mg/kg/injection, schedule: Q03HX024 (sc)): 151 % of control | T/C (dose: 4.0 mg/kg/injection, schedule: Q04DX003 (sc)): 100 % of control | T/C (dose: 6.0 mg/kg/injection, schedule: Q01DX009 (ip)): 88 % of control | T/C (dose: 6.0 mg/kg/injection, schedule: Q01DX009 (sc)): 100 % of control | T/C (dose: 6.0 mg/kg/injection, schedule: Q04DX003 (ip)): 200 % of control | T/C (dose: 6.0 mg/kg/injection, schedule: Q04DX003 (sc)): 183 % of control | T/C (dose: 8.0 mg/kg/injection, schedule: Q01DX001 (sc)): 105 % of control | T/C (dose: 8.0 mg/kg/injection, schedule: Q01DX009 (sc)): 105 % of control | T/C (dose: 8.0 mg/kg/injection, schedule: Q03HX024 (sc)): 110 % of control | T/C (dose: 8.0 mg/kg/injection, schedule: Q04DX003 (sc)): 110 % of control | T/C (dose: 12.0 mg/kg/injection, schedule: Q01DX001 (sc)): 155 % of control | T/C (dose: 12.0 mg/kg/injection, schedule: Q04DX003 (ip)): 150 % of control | T/C (dose: 12.0 mg/kg/injection, schedule: Q04DX003 (sc)): 150 % of control | T/C (dose: 16.0 mg/kg/injection, schedule: Q01DX001 (sc)): 120 % of control | T/C (dose: 16.0 mg/kg/injection, schedule: Q01DX009 (sc)): 108 % of control and 111 % of control | T/C (dose: 16.0 mg/kg/injection, schedule: Q04DX003 (sc)): 120 % of control | T/C (dose: 16.0 mg/kg/injection, schedule: Q05DX009 (sc)): 111 % of control and 113 % of control | T/C (dose: 24.0 mg/kg/injection, schedule: Q01DX001 (ip)): 155 % of control | T/C (dose: 24.0 mg/kg/injection, schedule: Q01DX001 (sc)): 166 % of control | T/C (dose: 24.0 mg/kg/injection, schedule: Q04DX003 (sc)): 105 % of control | T/C (dose: 48.0 mg/kg/injection, schedule: Q01DX001 (ip)): 166 % of control | T/C (dose: 48.0 mg/kg/injection, schedule: Q01DX001 (sc)): 166 % of control | T/C (dose: 48.0 mg/kg/injection, schedule: Q04DX003 (ip)): 100 % of control | T/C (dose: 48.0 mg/kg/injection, schedule: Q04DX003 (sc)): 122 % of control
